These results are taken from US20180353445A1, “METHODS AND COMPOSITIONS RELATING TO PROTEASOME INHIBITOR RESISTANCE” (Whitehead Institute for Biomedical Research, priority 2017, published 2018).

Each structure is given as a SMILES string. Entries after “also recorded” stand apart in the source; their conditions may differ.

The test system of assay [1] is T47D cells with doxycycline inducible PSMD2 KD (Lo19S) versus control cells. The assay is described as follows: Lo19S T47D drug screen (PSMD2 KD versus control cells, CellTiter-Glo). Type of assay: cell-based, human. The settings on record: T47D, Lo19S state by dox-inducible PSMD2 shRNA; compound library screen; 72 h; CellTiter-Glo. Here is the method: The effect of each drug on viability of cells was calculated by averaging the duplicate experiments. The data is plotted in FIG. 16 as the log2 of the ratio of viability of PSMD2 KD versus control cells (log2 (shPSMD2/Control)). […] The Selleck natural product library (NPC) comprising 502 compounds in 5 doses and the. NIH bioactive compound library that includes 731 compounds in 4 doses were also screened using the same system.
A deeper understanding of the proteasome inhibitor resistant state could yield insights into the molecular mechanisms activated by cells to cope with proteotoxic stress and elucidate new therapeutic strategies for cancer. With these goals in mind, we screened mechanistically diverse small molecule libraries to identify compound sensitivities altered by the Lo19S and Hi-OXPHOS states. An initial screen was conducted in the isogenic T47D model with transient induction of the Lo19S state as described above, We evaluated >4300 mechanistically well-defined compounds within 4 libraries. The compounds included approved cancer drugs (Selleck anti-cancer library: CDL), common natural products (Natural product library: NPC) and an ^-NIH bioactives library (NIH). Each of these compounds was tested at ≥4 concentrations. (Table S5, data not shown), An additional 2866 compounds from the Boston University's Chemical Methodology and Library Development (CMLD-BU) small molecule collection was screened at a single dose (BULL, see Table S5).
Generation of the Lo19S T47D cell line—For the generation of the T47D Tet-inducible PSMD2 knockdown cell line—the TRIPZ vector with an inducible shRNA targeting PSMD2 was purchased from Dharmacon (clone V3THS_403760). It was introduced to the T47D cells according to manufactures protocol and cells were selected with puromycin […] for one week. The cells were exposed to doxycycline for 24 hours and cells were FACS sorted for the top 10% of most RFP expressing cells (highest expression of shRNA). The cells were further cultured in the absence of doxycycline and PSMD2 knockdown was induced as specified in the text.
After 48 hours the cells were collected counted and plated (in the absence of dox) at 1000 cells/well in 384-well opaque, white assay plates (Coming, NY), 50 uL per well, and incubated overnight at 37° C./5% CO2. Compound stocks from the Cancer drug library containing 349 bioactive compounds that were arrayed in dose 10 nM, 100 nM, 1 uM, 10 uM (Selleck anti-cancer compound library L3000), the natural products library containing 502 compounds that were utilized in 5 doses (dilution of 1:1000 of 2ug/ml, 0.2 ug/ml, 0.002/ug/ml, 0.0002 ug/ml), the NIH bioactive library including 731 drugs in dose of 10 nM, 100 nM, 1 uM, 10 uM and the Boston University's CMLD (Chemical Methodology and Library Development) compound deck containing 2866 compounds in one dose (10 uM), including novel chemotypes that uniquely probe three-dimensional space by employing stereochemical and positional variation within the molecular framework as diversity elements in library design. 50 nl of compounds were pin-transferred (V&P Scientific, CA, pin tool mounted onto Tecan Freedom Evo 150 MCA96 head, Tecan, Calif.) into duplicate assay plates and incubated for 72 h. The DMSO content was 0.1% within each well, Per plate, there are 32 wells of DMSO vehicle control and 32 wells of positive control compounds. After three days of incubation, 10 uL of CellTiter-Glo (Promega, Wis.) was added to each well, incubated for 10 minutes and the luminescence output was read on the M1000 Infinite Pro plate reader (Tecan, Calif.).
On the technique in general: ATP-based viability assays read luminescence as a measure of living cells.

For assay [2], the system named is IMR32 (reduced PSMD5) and Kelly neuroblastoma cells. The assay can be described thus: Viability of IMR32 versus Kelly neuroblastoma cells (CellTiter-Glo). It counts as cell-based, human. To be noted: for sensitivity of IMR32 cells relative to Kelly cells (fold viability): 72 hours after addition, CellTiter-Glo. As for the experimental part:
To determine whether these compounds also differentially affect cells with reduced expression of PSDMS, IMR32 and Kelly cells were each cultured in the presence of ABT-263, disulfiram, or elesclomol across a range of concentrations. Cell viability was measured by CellTiter-Glo® Luminescent Cell Viability Assay 72 hours after addition of the compound to cells. The fold viability relative to culture in the absence of the compound was determined for each cell line. […] In the experiment shown in FIG. 24, the lowest lower concentration of ABT-263 and disulfiram tested was 1 uM.
ABT-263 targets several members of the BCL2 family, including BCL2 and BCL-XL.

Assay [3] relates to MM.1.S xenograft. The assay is described as follows: Disseminated (orthotopic) multiple myeloma MM.1.S xenograft model and survival study. Type of assay: in vivo, mouse. The settings on record: for effect on tumor burden / tumor progression (BLI) / median OS: SCID mice, MM.1.S; for effect on tumor burden / tumor progression (BLI): bioluminescence imaging; for median OS: control median OS 36. Here is the method:
To test this hypothesis, we established an orthotopic luciferized MM.1.S xenograft model by intravenous injection of MM.1.S cells into severe combined immunodeficient (SCID) mice. After engraftment, the mice were randomized into treatment groups, each carrying equivalent tumor burdens based on bioluminescence imaging (BLI). Mice were then treated with either vehicle alone, bortezomib, elesclomol or with the two drugs in combination.
GFP^+/Luc^+MM.1S cells were generated by retroviral transduction of the human MM1.S that was purchased from ATCC (Manassas, Va., USA)., using the pGC-GFP/Luc vector. Cells were authenticated by short tandem repeat DNA profiling.
Disseminated Multiple Myeloma Animal model and survival study—A total of 25 Female SCID-beige mice at 4-6 weeks of age (Taconic, USA) were utilized for the study. Tumors cells (3 million […] MM1S cells/mouse) were introduced into mice via intravenous injection and were allowed to grow until the LUC signal from their tumors reached 1×10^7 radians (photons/sec/cm^2/surface area). Tumor growth was monitored weekly by bioluminescence imaging (BLI), using an IVIS Spectrum-bioluminescent and fluorescent imaging system (Perkins Elmer). Mice were randomly attributed a group of treatment (n=5 per group). Control group was IV injected once a week 200 uL saline solution; Bortezomib (0.25 mg/kg, 100 uL) was IP injected first day of the week, once a week until death of the animal. Elesclomol (25 mg/kg, 100 uL) was subcutaneously injected every 3rd day of the week until death of the animal. Elesclomol+Bortezomib group were treated similarly to previous groups. The delayed group started the elesclomol treatment 14 days after the inclusion of the animal in the study. Endpoint of the study was dictated by either limb-paralysis of the animal or severe toxicity induced by the treatment as per Dana-Farber Animal policy.

Take `CN(NC(=O)CC(=O)NN(C)C(=S)c1ccccc1)C(=S)c1ccccc1` [elesclomol]: the “viability of PSMD2 KD versus control cells (log2 (shPSMD2/Control))” value in assay [1] was “selectively reduce the viability of PSMD2 KD cells versus control cells; also recorded: selectively sensitized cells; also recorded: highly effective in slowing the growth of cells in the Lo19S state”. For the same compound, the “sensitivity of IMR32 cells relative to Kelly cells (fold viability)” value in assay [2] is “dramatically more sensitive”. In assay [3], the “effect on tumor burden / tumor progression (BLI)” value is reported as “modest effects on tumor burden” and the “median OS” value was found to be 39. Moreover, the effect on survival result in assay [3] (versus control) is reported as “modestly but significantly increased survival”.
`CC(C)C[C@H](NC(=O)[C@H](Cc1ccccc1)NC(=O)c1cnccn1)B(O)O` [bortezomib]: in assay [1], the “viability of PSMD2 KD versus control cells (log2 (shPSMD2/Control))” value was “selectively reduce viability of control cells versus PSMD2 KD cells”. Further, in assay [2], the “sensitivity of IMR32 cells relative to Kelly cells (fold viability)” value is on record as “increased resistance”. For the same compound, in assay [3], the “effect on tumor burden / tumor progression (BLI)” value is on record as “modest effects on tumor burden” and the “median OS” value amounted to 40.
In the case of `CC1(C)CCC(c2ccc(Cl)cc2)=C(CN2CCN(c3ccc(C(=O)NS(=O)(=O)c4ccc(N[C@H](CCN5CCOCC5)CSc5ccccc5)c(S(=O)(=O)C(F)(F)F)c4)cc3)CC2)C1` [ABT-263, navitoclax], in assay [1], the “viability of PSMD2 KD versus control cells (log2 (shPSMD2/Control))” value is reported as “selectively reduce the viability of PSMD2 KD cells versus control cells; also recorded: selectively sensitized cells”. Also, in assay [2], the “sensitivity of IMR32 cells relative to Kelly cells (fold viability)” value is listed as “dramatically more sensitive; also recorded: significantly more sensitive”. Besides, in assay [2] (ABT-263 versus more specific BCL2, BCL-XL and MCL-1 inhibitors), the “preferential sensitivity of IMR32 versus Kelly cells, compared among BCL2 family inhibitors” value is given as “much greater for ABT-263”. Also, in assay [2] (IMR32 cells, PSMD5 epigenetically suppressed), the “effect of reintroduction (forced expression) of the PSMD5 subunit in IMR32 cells on sensitivity” value is “did not significantly alter”.
